# Source: patent publication US20070145619A1, “Processes for producing microencapsulated delivery vehicles” (Kimberly-Clark Worldwide, Inc., priority 2005, published 2007)
# Where two headings read alike, the source gives them in different places.
# Tests used:
# [1] = Heat generation after soaking in de-ionized water; assay type: physicochemical; conditions: 0.73 grams added to 7.0 grams de-ionized water, no protective layer; FIG. 6
# Experimental: Four samples of the calcium chloride particles including a moisture protective layer were then analyzed for their ability to generate heat after exposure to water. A control sample (calcium chloride) was also tested for heat generating capabilities and compared to the four samples of calcium chloride having a moisture protective layer.
# To analyze the samples for heat generation, 0.80 grams of each sample of calcium chloride including a moisture protective layer was added to four separate vials each containing 7.0 grams of de-ionized water and 0.73 grams of the control sample was added to a fifth vial containing 7.0 grams of de-ionized water. Using a J type thermocouple (commercially available from Omega Engineering, Inc., Stamford, Conn.) and a data logger, the temperature of the samples was measured over a period of 180 seconds. The four vials containing the samples of microencapsulated heat delivery vehicle including a moisture protective layer were allowed to remain in the de-ionized water for 0.5 hours, 1.0 hour, 1.5 hours, and 2.0 hours, respectively, at which time the samples were activated by crushing the samples by hand using a metal rod. The temperature of the water in the four vials was measured for a period of 180 seconds after crushing the samples.
# [2] = particle size less than 250 micrometers, compared with three other size ranges; 35 wt % in mineral oil added to 7.0 grams de-ionized water; FIG. 4
# Experimental: In this example, samples incorporating various size ranges of anhydrous magnesium chloride suspended in mineral oil at 35 wt % were evaluated for their ability to generate heat upon introduction into water.
# The four size ranges of anhydrous magnesium chloride evaluated were: (1) 1000-1500 microns; (2) 600-1000 microns; (3) 250-600 microns; and (4) less than 250 microns. To produce the samples of anhydrous magnesium chloride in mineral oil, the various size ranges of anhydrous magnesium chloride powder (Magnesium Interface Inc. (Vancouver, B.C., Canada) were suspended at 35 wt % in mineral oil (available as Drakeol 7 LT NF from Penreco, Dickinson, Tex.). To produce the samples having anhydrous magnesium chloride with size ranges of 1000-1500 microns, 600-1000 microns, and 250-600 microns, the as received anhydrous magnesium chloride powder was hand screened into the size ranges desired and the powders collected. These powders were suspended at 35 wt % in mineral oil using a cowles mixing blade. […]
# All four samples were then added to 7.0 grams de-ionized water and the resulting temperature rise was measured using a J type Thermocouple (available from Omega Engineering, Inc., Stamford, Conn.).
# Staphylococcus aureus = assay: Biocidal efficacy of magnesium chloride in combination with PHMB, total plate count; assay type: cell-based; conditions: 15-minute contact time
# Experimental: A 1.5-milliliter tube was prepared using magnesium chloride in water.
# Two control samples were also prepared. One control sample was filled with 0.850 milliliters magnesium chloride. A second control sample was prepared by introducing 0.850 milliliters sterile water.
# The tubes were then vortexed until an increase in temperature was observed.
# 0.05 milliliters of 1×10^7 CFU/milliliter culture of Staphylococcus aureus was added to each tube. After a 15-minute contact time, 0.1 milliliters of each tube was transferred into 0.9 milliliters letheen broth. To the broth, 10 milligrams/milliliter sodium thiosulfate was also added. The tubes were again vortexed. After vortexing, 0.1 milliliters of each tube was plated on Tryptic soy agar plates. The plates were inverted and incubated at 37° C. for 24 hours. An inoculum control plate was also plated to determine the concentration of the inoculum
# After 24 hours, the plates were evaluated using a total plate count to determine the biocidal efficacy of each sample.
# [3] = particle size 149-355 micrometers, compared with four other size ranges; 35 wt % in mineral oil added to 7.0 grams de-ionized water; FIG. 3
# Experimental: In this example, samples incorporating various size ranges of anhydrous calcium chloride suspended in mineral oil at 35 wt % were evaluated for their ability to generate heat upon introduction into water.
# The five size ranges of anhydrous calcium chloride evaluated were: (1) less than 149 microns; (2) 149-355 microns; (3) 710-1190 microns; (4) 1190-2000 microns; and (5) 2000-4000 microns. The samples of anhydrous calcium chloride (Dow Chemical, Midland, Mich.) were dispersed in mineral oil (available as Drakeol 7 LT NF from Penreco, Dickinson, Tex.). The as received anhydrous calcium chloride were screened dry using a Gilson Sonic Sieve (Gilson Company, Inc. Columbus, Ohio) to create two sizes, a 1190-2000 micron size and a 2000-4000 micron size. These powders were then suspended at 35 wt % in mineral oil to form a slurry using a cowles mixing blade. To achieve the smaller size distributions, the anhydrous calcium chloride powder required further processing. […]
# All five samples were then individually added to 7.0 grams de-ionized water and the resulting temperature rise was measured using a Barnant Scanning Thermocouple (available from Therm-X of California, Hayward, Calif.).
# [4] = tested on: Methicillin-resistant Staphylococcus aureus; conditions: for LOG10 Reduction: 0.005% PHMB vs no PHMB; for LOG10 Reduction / Total CFU Recovered MRSA: 10-minute contact time; for Total CFU Recovered MRSA: 0.005% PHMB, 5% bovine serum albumin soil, n = 2
# Experimental: This Example utilized 1.5-milliliter tubes containing a 1-milliliter blend of phosphate-buffered saline (pH 7.2) and 5% (w/v) bovine serum albumin soil. The tubes were placed in electric heat blocks set for 22° C., 30° C., 40° C. and 50° C., respectively. The tubes remained in the electric heat blocks for approximately 10 minutes.
# After 10 minutes, 0.005% (by weight) active polyhexamehtylene biguanide (PHMB) (commercially available as Cosmocil® CQ from Arch Biocides, Inc., United Kingdom) was added to two tubes at each temperature level. Duplicate tubes without PHMB at each temperature were also made.
# The tubes were then vortexed and Methicillin-resistant Staphylococcus aureus (approximately 1×10^5 colony forming units (CFU)) was then added to each tube. All of the tubes were then placed back into the heat blocks at their respective temperatures.
# Following a 10-minute contact time, 0.1 milliliters of each sample was transferred to 0.9 milliliters letheen broth to neutralize the PHMB activity. The letheen samples were then plated in duplicate on Tryptic Soy agar plates using a WASP2 spiral plater (commercially available from Don Whitley Scientific, Ltd., Yorkshire, United Kingdom). The plates were inverted and incubated at 37±2° C. for 48 hours.
# After 48 hours, the plates were evaluated using a total plate count to determine the biocidal efficacy of each sample.
compound,measurement,setting,value
"[Ca+2].[Cl-].[Cl-] [Example 11 control sample, calcium chloride]",heat production in water,[1],produced heat immediately upon being introduced into water but only for a short period of time
"[Cl-].[Cl-].[Mg+2] [Magnesium Chloride, magnesium chloride]",rate of heat generation,[2],highest rate
same,LOG10 recovered,"Staphylococcus aureus; PHMB 0%, magnesium chloride 50%",1.9 LOG10
"[Ca+2].[Cl-].[Cl-] [anhydrous calcium chloride, calcium chloride]",rate of heat generation,[3],highest rate
polyhexamethylene biguanide [PHMB],difference in efficacy between 22° C. and 50° C.,[4]; 0.005% (by weight) active PHMB,greater than 1.4 LOG10
same,LOG10 Reduction,[4]; 22° C.,2.1 LOG10
same,Total CFU Recovered MRSA,[4]; 22° C.,3.5 CFU
same,LOG10 Reduction,[4]; 30° C.,2.8 LOG10
same,Total CFU Recovered MRSA,[4]; 30° C.,2.9 CFU
same,LOG10 Reduction,[4]; 40° C.,3.5 LOG10
same,Total CFU Recovered MRSA,[4]; 40° C.,2.1 CFU
same,LOG10 Reduction,[4]; 50° C.,>3.5 LOG10
same,Total CFU Recovered MRSA,[4]; 50° C.,<2 CFU
same,LOG10 recovered,"Staphylococcus aureus; PHMB 0.00025%, magnesium chloride 0%",4.8 LOG10
